Laboratory results from patent US9751837B2, “Kinase inhibitors” (RESPIVERT LIMITED, priority 2014, dated 2017).
Converted amounts (≈) assume the structure as drawn. Read-outs that look alike come from different tables or passages of the source.

How the values were obtained:
[1] = molecular target: GSK 3α (Homo sapiens (Human), UniProt P49840); assay: GSK 3α enzyme inhibition (Method 2), Z-LYTE FRET; format: biochemical; conditions: read-out: IC50 Values for Enzyme Inhibition GSK3α
Outline: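 GSK3-α (500 ng/mL stock) was preincubated with compound at RT for 2 hr (Method 1; 4-0.004 μg/mL stocks) or 105 min (Method 2; 10-0.01 μg/mL stocks). The Z-LYTE FRET peptide (8 μM stock) and ATP (40 μM stock) were then reacted for 1 hr, followed by 1 hr protease development. Phosphorylation was read as the coumarin/fluorescein emission ratio.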

[2] = tested on: Jurkat cells; assay: Cell cytotoxicity assay (r); format: cell-based, human; conditions: 24 hours
Outline: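 Jurkat cells (1×10^5/well, RPMI + 10% FBS) exposed to compound at 20, 5 or 1 μg/mL final (1.0% DMSO control) for 24 h at 37° C., 5% CO2. Then stained with 7.5 μg/mL propidium iodide for 15 min. % viability = PI-negative cells by flow cytometry, normalized to DMSO.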

[3] = Solubility in fasted-state simulated colonic fluid (FaSSCoF) at pH 6.5; format: physicochemical; conditions: 25 °C, pH 6.5, fassgf or other biorelevant, thermodynamic from solid
Outline: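 Compounds were suspended at up to 2-10 mg/mL in pH 6.5 Tris/maleate FaSSCoF containing a five-bile-acid mixture, phosphatidylcholine, palmitic acid and BSA. After 24 h equilibration at 25° C the suspension was filtered and the filtrate quantified by HPLC peak area against a standard.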

[4] = molecular target: hERG (Homo sapiens (Human), UniProt Q12809); assay: hERG inhibition, IonWorks patch clamp electrophysiology; format: cell-based; conditions: human, hERG, read-out: % Inhibition at Top Concentration
Experimental: (§1) Compounds of the invention were tested for inhibition of the human ether a go-go (hERG) channel using IonWorks™ patch clamp electrophysiology at Essen Bioscience (Welwyn Garden City, England).

[5] = molecular target: human ether a go-go (hERG) channel (Homo sapiens (Human), UniProt Q12809); assay: as above; format: cell-based; conditions: IonWorks patch clamp
Experimental: as §1

[6] = Pharmacokinetics and total colon distribution after single oral administration; format: in vivo, male C57BL/6 mice; conditions: male, C57BL/6, mouse, mice, Ex. 16 measured after oral 5 mg/kg of Ex. 19 (Na salt)
Experimental: Studies were conducted by Sai Life Sciences (Hinjewadi, Pune, India) to investigate the systemic pharmacokinetics and total colon tissue distribution of compounds of the invention. In particular, pharmacokinetic studies were carried out in male C57BL/6 mice following a single oral administration of the compound.

[7] = pH 6.5 FaSSCoF Solubility (mg/mL) Run 1
[8] = pH 6.5 FaSSCoF Solubility (mg/mL) Run 2
[9] = blood, read-out: Mean blood concentration
[10] = total colon, read-out: total colon level

Chain of human ether a go-go (hERG) channel (Q12809 whole entry): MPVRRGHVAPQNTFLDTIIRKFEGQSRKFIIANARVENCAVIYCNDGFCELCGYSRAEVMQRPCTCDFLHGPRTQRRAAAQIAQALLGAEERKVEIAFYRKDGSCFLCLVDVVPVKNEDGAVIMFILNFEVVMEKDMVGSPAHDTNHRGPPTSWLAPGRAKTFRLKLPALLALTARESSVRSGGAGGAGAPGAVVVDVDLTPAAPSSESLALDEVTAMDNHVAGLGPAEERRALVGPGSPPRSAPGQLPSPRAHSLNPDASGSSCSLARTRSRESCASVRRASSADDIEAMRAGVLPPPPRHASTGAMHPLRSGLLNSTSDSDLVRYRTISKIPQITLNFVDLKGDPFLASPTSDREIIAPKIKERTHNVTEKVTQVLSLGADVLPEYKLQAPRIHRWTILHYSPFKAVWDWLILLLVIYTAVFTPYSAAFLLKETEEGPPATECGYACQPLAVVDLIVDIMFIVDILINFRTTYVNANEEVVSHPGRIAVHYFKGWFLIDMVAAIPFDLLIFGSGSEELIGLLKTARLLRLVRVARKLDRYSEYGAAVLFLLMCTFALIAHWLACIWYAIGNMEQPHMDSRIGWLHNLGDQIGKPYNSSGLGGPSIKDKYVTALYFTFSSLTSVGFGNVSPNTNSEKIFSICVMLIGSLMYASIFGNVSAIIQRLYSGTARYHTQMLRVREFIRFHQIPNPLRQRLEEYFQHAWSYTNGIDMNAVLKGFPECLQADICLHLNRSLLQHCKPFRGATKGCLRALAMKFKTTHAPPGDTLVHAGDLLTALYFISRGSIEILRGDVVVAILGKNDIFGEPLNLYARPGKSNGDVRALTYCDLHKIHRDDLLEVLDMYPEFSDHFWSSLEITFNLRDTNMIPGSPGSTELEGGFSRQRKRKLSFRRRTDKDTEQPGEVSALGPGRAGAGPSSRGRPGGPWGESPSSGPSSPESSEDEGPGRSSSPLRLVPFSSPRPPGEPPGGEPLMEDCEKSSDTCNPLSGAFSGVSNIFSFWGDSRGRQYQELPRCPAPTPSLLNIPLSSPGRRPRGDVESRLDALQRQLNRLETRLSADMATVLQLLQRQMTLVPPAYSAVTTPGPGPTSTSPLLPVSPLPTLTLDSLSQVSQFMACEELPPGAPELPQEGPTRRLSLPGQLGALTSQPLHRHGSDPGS
Chain of hERG (Q12809 whole entry): as above
Chain of GSK 3α (P49840 whole entry): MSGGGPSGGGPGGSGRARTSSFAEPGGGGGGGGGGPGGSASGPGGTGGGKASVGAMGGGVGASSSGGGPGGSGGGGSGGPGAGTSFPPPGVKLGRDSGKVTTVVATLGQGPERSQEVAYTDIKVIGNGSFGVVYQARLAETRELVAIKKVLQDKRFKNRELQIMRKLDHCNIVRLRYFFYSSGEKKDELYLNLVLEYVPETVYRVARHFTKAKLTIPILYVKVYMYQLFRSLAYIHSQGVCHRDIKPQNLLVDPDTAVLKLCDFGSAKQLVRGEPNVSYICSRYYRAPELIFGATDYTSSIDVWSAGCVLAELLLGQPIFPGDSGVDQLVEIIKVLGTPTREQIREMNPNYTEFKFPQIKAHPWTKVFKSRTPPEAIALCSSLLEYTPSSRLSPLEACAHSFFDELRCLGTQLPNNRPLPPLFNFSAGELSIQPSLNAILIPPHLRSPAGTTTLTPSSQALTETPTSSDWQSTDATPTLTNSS

In the case of `C#Cc1cc(Nc2cc(Oc3ccc(NC(=O)Nc4cc(C(C)(C)C)cc(NS(C)(=O)=O)c4OC)c4ccccc34)ccn2)ccc1C(=O)NCCN1CCOCC1` [Example 15, 4-[[4-[[4-[[5-tert-Butyl-3-(methanesulfonamido)-2-methoxy-phenyl]carbamoylamino]-1-naphthyl]oxy]-2-pyridyl]amino]-2-ethynyl-N-(2-morpholinoethyl)benzamide], the IC50 [1] is reported as 2.79 µM, the “% Viability at 5 μg/mL” value [2] is reported as 75.0% and the solubility thermodynamic at 24 h [3, 7] is reported as 0.01 mg/mL (≈ 12.4 µM). For the same compound, the solubility thermodynamic at 24 h [3, 8] was 0.01 mg/mL (≈ 12.4 µM).
With `COc1cc(Nc2cc(Oc3ccc(NC(=O)Nc4cc(C(C)(C)C)cc(NS(C)(=O)=O)c4OC)c4ccccc34)ccn2)ccc1C(=O)NCCN1CCN(CCO)CC1` [17(z), 4-[[4-[[4-[[5-tert-butyl-3-(methanesulfonamido)-2-methoxy-phenyl]carbamoylamino]-1-naphthyl]oxy]-2-pyridyl]amino]-N-[2-[4-(2-hydroxyethyl)piperazin-1-yl]ethyl]-2-methoxy-benzamide] the IC50 [1] was 2.88 µM and the “% Viability at 20 μg/mL” value [2] was 2.0%.
`COc1cc(Nc2cc(Oc3ccc(NC(=O)Nc4cc(C(C)(C)C)cc(NC(=O)CO)c4OC)c4ccccc34)ccn2)ccc1C(=O)NCCN1CC[S+]([O-])CC1` [Example 41, 4-((4-((4-(3-(5-(tert-Butyl)-3-(2-hydroxyacetamido)-2-methoxyphenyl)ureido)naphthalen-1-yl)oxy)pyridin-2-yl)amino)-2-methoxy-N-(2-(1-oxidothiomorpholino)ethyl)benzamide] gave an inhibition at 11 µM [4] of 7%, an IC50 [5] of over 11 µM and a solubility thermodynamic at 24 h [3, 7] of 0.007 mg/mL (≈ 8.5 µM). The solubility thermodynamic at 24 h [3, 8] was 0.003 mg/mL (≈ 3.64 µM).
With `COc1cc(Nc2cc(Oc3ccc(NC(=O)Nc4cc(C(C)(C)C)cc(NS(C)(=O)=O)c4OC)c4ccccc34)ccn2)ccc1C(=O)NCCN1CCCCC1` [17(p), 4-[[4-[[4-[[5-tert-butyl-3-(methanesulfonamido)-2-methoxy-phenyl]carbamoylamino]-1-naphthyl]oxy]-2-pyridyl]amino]-2-methoxy-N-[2-(1-piperidyl)ethyl]benzamide] the IC50 [1] was 4.68 µM and the “% Viability at 20 μg/mL” value [2] was 1.5%.
In the case of `COc1cc(Nc2cc(Oc3ccc(NC(=O)Nc4cc(C(C)(C)C)cc(NS(C)(=O)=O)c4OC)c4ccccc34)ccn2)ccc1C(=O)NCC1CCN(C)CC1` [17(ak), 4-[[4-[[4-[[5-tert-butyl-3-(methanesulfonamido)-2-methoxy-phenyl]carbamoylamino]-1-naphthyl]oxy]-2-pyridyl]amino]-2-methoxy-N-[(1-methyl-4-piperidyl)methyl]benzamide], the IC50 [1] is reported as 1.82 µM, the “% Viability at 1 μg/mL” value ([2]; 1 μg/mL) is reported as 99.0% and the “% Viability at 20 μg/mL” value [2] is reported as 0.4%.
With `COc1cc(Nc2cc(Oc3ccc(NC(=O)Nc4cc(C(C)(C)C)cc(NS(C)(=O)=O)c4OC)c4ccccc34)ccn2)cc(OC)c1C(=O)NCCN1CCN(C)CC1` [Example 22, 4-((4-((4-(3-(5-(tert-Butyl)-2-methoxy-3-(methylsulfonamido)phenyl)ureido)naphthalen-1-yl)oxy)pyridin-2-yl)amino)-2,6-dimethoxy-N-(2-(4-methylpiperazin-1-yl)ethyl)benzamide] the inhibition at 3.7 µM ([4]; 3.7 μM) was 13%, the IC50 [5] was over 3.7 µM and the solubility thermodynamic at 24 h [3, 7] was 0.017 mg/mL (≈ 19.9 µM). It also gave a solubility thermodynamic at 24 h [3, 8] of 0.025 mg/mL (≈ 29.2 µM), a solubility thermodynamic at 24 h ([3]; pH 6.5 FaSSCoF Solubility (mg/mL) Run 3) of 0.013 mg/mL (≈ 15.2 µM) and a solubility thermodynamic at 24 h ([3]; pH 6.5 FaSSCoF Solubility (mg/mL) Run 4) of 0.009 mg/mL (≈ 10.5 µM).
With `COc1cc(Nc2cc(Oc3ccc(NC(=O)Nc4cc(C(C)(C)C)cc(NS(C)(=O)=O)c4OC)c4ccccc34)ccn2)ccc1C(=O)NCCC1CCN(C)CC1` [Example 14, 4-[[4-[[4-[[5-tert-Butyl-3-(methanesulfonamido)-2-methoxy-phenyl]carbamoylamino]-1-naphthyl]oxy]-2-pyridyl]amino]-2-methoxy-N-[2-(1-methyl-4-piperidyl)ethyl]benzamide] the IC50 [1] was 2.21 µM, the “% Viability at 20 μg/mL” value [2] was 0.7% and the solubility thermodynamic at 24 h [3, 7] was 0.016 mg/mL (≈ 19.4 µM). For the same compound, the solubility thermodynamic at 24 h [3, 8] was 0.013 mg/mL (≈ 15.8 µM).
With `CCOP(C)(=O)c1ccc(Nc2cc(Oc3ccc(NC(=O)Nc4cc(C(C)(C)C)cc(NS(C)(=O)=O)c4OC)c4ccccc34)ccn2)cc1OC` (stereo not drawn) [Example 43, ethyl (4-((4-((4-(3-(5-(tert-butyl)-2-methoxy-3-(methylsulfonamido)phenyl)-ureido)naphthalen-1-yl)oxy)pyridin-2-yl)amino)-2-methoxyphenyl)(methyl)phosphinate] the inhibition at 11 µM [4] was 13%, the IC50 [5] was over 11 µM and the solubility thermodynamic at 24 h ([3]; FaSSCoF pH 6.5, 25° C., 24 h, Run 1, read-out: pH 6.5 FaSSCoF Solubility (mg/mL) Run 1) was 0.003 mg/mL (≈ 3.94 µM). It also gave a solubility thermodynamic at 24 h ([3]; FaSSCoF pH 6.5, 25° C., 24 h, Run 2, read-out: pH 6.5 FaSSCoF Solubility (mg/mL) Run 2) of 0.003 mg/mL (≈ 3.94 µM).
With `COc1cc(Nc2cc(Oc3ccc(NC(=O)Nc4cc(C(C)(C)C)cc(NS(C)(=O)=O)c4OC)c4ccccc34)ccn2)ccc1C(=O)NCCOCCOCCO` [Example 16, 4-[[4-[[4-[[5-tert-Butyl-3-(methanesulfonamido)-2-methoxy-phenyl]carbamoylamino]-1-naphthyl]oxy]-2-pyridyl]amino]-N-[2-[2-(2-hydroxyethoxy)ethoxy]ethyl]-2-methoxy-benzamide] the concentration at 0.5 h [6, 9] was 1.3 ng/mL, the concentration at 1 h [6, 9] was 1.4 ng/mL and the concentration at 2 h [6, 9] was 0.6 ng/mL. It also gave a concentration at 4 h [6, 9] of 0 ng/mL, a concentration at 6 h [6, 9] of 0 ng/mL and a concentration at 8 h [6, 9] of 0.2 ng/mL. The concentration at 12 h [6, 9] was 0 ng/mL, the concentration at 24 h [6, 9] was 0 ng/mL and the concentration at 0.5 h [6, 10] was 9.5 ng/g. It also gave a concentration at 1 h [6, 10] of 110 ng/g, a concentration at 2 h [6, 10] of 2400 ng/g and a concentration at 4 h [6, 10] of 3350 ng/g. For the same compound, the concentration at 6 h [6, 10] was 3320 ng/g, the concentration at 8 h [6, 10] was 3420 ng/g and the concentration at 12 h [6, 10] was 5090 ng/g. For the same compound, the concentration at 24 h [6, 10] was 0 ng/g, the IC50 [1] was 3.73 µM and the solubility thermodynamic at 24 h [3, 7] was 0.004 mg/mL (≈ 4.81 µM). The solubility thermodynamic at 24 h [3, 8] was 0.004 mg/mL (≈ 4.81 µM).
With `COCCN(C)CCNC(=O)c1ccc(Nc2cc(Oc3ccc(NC(=O)Nc4cc(C(C)(C)C)cc(NS(C)(=O)=O)c4OC)c4ccccc34)ccn2)cc1OC` [17(ad), 4-[[4-[[4-[[5-tert-butyl-3-(methanesulfonamido)-2-methoxy-phenyl]carbamoylamino]-1-naphthyl]oxy]-2-pyridyl]amino]-2-methoxy-N-[2-[2-methoxyethyl(methyl)amino]ethyl]-benzamide] the IC50 [1] was 3.06 µM, the “% Viability at 5 μg/mL” value [2] was 6.3% and the “% Viability at 20 μg/mL” value [2] was 0.4%.
